Data published in PMC5526551, “New hydrazonoindolin-2-ones: Synthesis, exploration of the possible anti-proliferative mechanism of action and encapsulation into PLGA microspheres” (PLoS ONE, 2017).

Assays:
[1] = tested on: Caspase 3/7 activity in A549 cells; experiment: Apoptosis and caspase 3/7 activity (CaspaseGlo 3/7 luminescence); format: cell-based, human; conditions: for Increase in caspase 3/7 activity: A549, 10 μM
Procedure: Compound 7e was analyzed for apoptosis inducing activity in cancer cells. These studies were carried out using cells derived from human lung (A549).
Fig 4 A-549 human lung cancer cells were treated with 3.3 and 10 μM 7e over a time course from 2–48 h. Caspase 3/7 activity was measured by a luminescence-based homogenous assay.
A549 cells were harvested from a 90% confluent 10 cm dish and diluted in growth medium. An appropriate concentration of cells were prepared to add 1,250 cells in a volume of 25 µL per well in tissue culture treated Corning 384-well microplates, then incubated overnight at 37°C. A single cluster of four wells containing no cells was included to serve as a background (no cell) control. Compound 7e was diluted in DMSO to concentrations […].
Concentrated dosing solutions of twice the final concentration were prepared by dilution of the DMSO stocks 1:500 in growth media. Three-fold dilutions of each dosing medium was then prepared in medium containing 0.2% DMSO to maintain a constant concentration of vehicle throughout the concentration range of the compound. Each of these was added in equal volume (25 µL) to four wells on each cell assay plate, along with the vehicle control. Cells were incubated with the compounds for a further 48 h. After 24 h, a separate group of cells was treated identically for 24 h. Likewise, groups of cells were treated for durations of 16, 8, 4 and 2 h.
At the end of the treatment period, assay plates were allowed to cool to RT for 10 min prior to addition of 25 µL per well Promega CaspaseGlo 3/7 reagent, followed by an additional 10 min incubation at RT. The resulting luminescence was quantitated using a Molecular Devices Spectramax Paradigm.
The average mean value of the background “no cell” control sample wells were subtracted from all vehicle and test compound wells.Fold-change in caspase activity was then calculated by dividing the mean sample value for each treatment time point by the mean vehicle value for the corresponding time.

[2] = In vitro 7e release (vial method, phosphate buffer pH 7.4); format: physicochemical; conditions: after 5 days, pH 7.4, 37°C
Procedure: In vitro7e-release: Studies on the in vitro release of 7e from microspheres were carried out using the vial method as reported by Dubey et al.. Compound 7e-PLGA-microspheres containing 5 mg equivalent of compound 7e were suspended in a vial containing phosphate buffer (10 mL, pH 7.4) with 0.3% Tween 80 to improve the solubility of 7e. The vial was incubated in a water bath at 37 ± 0.5°C and vibrated horizontally at speed of 100 rpm. In vitro 7e release was assessed by intermittently sampling the vial (2 mL) at predetermined time intervals (1, 2, 3, 4, 5, 6, 10, 12, 15, 18, 20 and 21 days), then replacing the volume with 2 mL of fresh phosphate buffer.
In vitro 7e release was assessed in phosphate buffer (pH 7.4) containing a surfactant to simulate the physiological milieu and maintain sink conditions. Samples were incubated at 37°C, and the amount of 7e was determined using a UV spectrophotometer. […] On the other hand, the release of compound 7e from the raw powder was faster than its release from the microspheres, as 65% of 7e was released after 5 days. This uncontrolled burst release of compound 7e from raw powder could result in too high local concentration which could lead to severe local tissue injure and hamper appropriate delivery to the target.

A549 = experiment: Cell viability assay of free 7e and 7e-loaded microspheres; format: cell-based, human
Procedure: Cell viability assay: The cell viability assay was performed as described in the section of anti-proliferative activity in the supplementary materials.
The human lung cancer A549 cell line was incubated with various concentrations (0.8, 1.6, 3.13, 6.25, 12.5, 25 and 50 μM) of both free 7e and 7e-loaded microspheres to evaluate the anti-proliferative activity by assessing their effect on cell viability.
A549, HT-29, ZR-75 were obtained from the American Type Culture Collection (ATCC). Cells were harvested from 90-95% confluent 10 cm dishes, and diluted in growth media (RPMI-1640 supplemented with 5% fetal bovine serum). An appropriate concentration of cells were prepared to add 1,250 cells in a volume of 25 µL per well in tissue culture treated Griener 384-well microplates, then incubated overnight at 37°C. Compound 7e was diluted to a concentration of 30 µM in DMSO. Concentrated dosing solutions of twice the final concentration were prepared by dilution of the DMSO stocks 1:500 in growth media. Two-fold serial dilutions were then prepared in medium containing 0.2% DMSO to maintain a constant concentration of vehicle throughout the concentration range of the compound. Each of these was added in an equal volume (25 µL) to four wells on each cell assay plate, along with the vehicle control. The highest concentration for serial dilutions of the positive control (sunitinib) was prepared exactly as the experimental compound 7e. […]
At the end of the treatment period, assay plates were allowed to cool to RT for 10 min prior to the addition of 25 µL per well Promega CellTiterGlo reagent, followed by additional 10 min incubation at RT. The resulting luminescence was quantitated using a Molecular Devices Spectramax Paradigm.

O=C1Nc2ccc(Br)cc2C1=NN=C1C(=O)N(Cc2ccccc2)c2ccccc21 [Compound 7e, 1-Benzyl-3-((5-bromo-2-oxoindolin-3-ylidene)hydrazono)indolin-2-one]
Increase in caspase 3/7 activity ([1]; 4 h): 2.4 fold
Increase in caspase 3/7 activity ([1]; 8 h): 1.85 fold
Effect on caspase 3/7 activity ([1]; A549, lower tested concentration (3.3 μM)): no effect
Cumulative in vitro release of 7e [2]: 65%
Reduction in cell viability (A549; A549, 0.8 μM, 24 h): no cytotoxicity
Reduction in cell viability (A549; A549, 1.6 μM, 24 h): no cytotoxicity
Reduction in cell viability (A549; A549, 1.6 μM, 72 h): 30%
Reduction in cell viability (A549; A549, 3.1 μM, 72 h): 70%
Reduction in cell viability (A549; A549, 3.1 μM, 120 h): almost total inhibition
Reduction in cell viability (A549; A549, 3.13 μM, 24 h): 20%
Reduction in cell viability (A549; A549, 6.25 μM, 24 h): remarkable reduction
IC50 (A549; Homo sapiens, A549, 24 h of incubation, read-out: IC50 toward A549 cells): 6.51 µM
melting point: 265 to 267 °C
